Read-outs that look alike come from different tables or passages of the source.
Target: P-glycoprotein (Pgp) (Homo sapiens, UniProt P08183)
Conditions: for conformation change which prevents binding of MM12.10 after UIC2 (efficient in ACT): cells pretreated with modulator/substrate, then UIC2, then FITC-MM12.10, KB-V1 and NIH 3T3 MDR1 cells
Experimental: The cells were trypsinized as usual, washed twice with PBS (phosphate buffered saline, pH 7,4). 10^6 cells/1 ml PBS (plus 8 mM glucose), pre-incubated for 20 minutes at 37° C. with different drugs, modulators, and without washing the cells, the first (“A”) monoclonal antibody was added to the samples. After a further 30 minutes incubation (at 37° C.) an FITC or 5-sFx conjugated second (“B”) antibody was added to the samples (again without washing the cells), and were incubated at 37° C. for another 30 minutes. In case of the UIC2-shift test the cells were incubated with UIC2 antibody, washed twice, and incubated with goat anti-mouse IgG2a FITC conjugate (F/P=4,3, Sigma) on ice in 100 μl PBS for 45 minutes. The samples washed twice were resuspended in 500 μl PBS, and analyzed in flow cytometer. The antibody concentrations used were: 8 μg/ml MRK16, MC57, MM8.15, MM12.10 and 10 μg/ml UIC2. Daunorubicine (DNR) and calcein accumulation tests: see Goda, K. et al.: Practical guide to physical analysis of cell surface receptors, Ed.: Krasznai, Z. and Mátyus, L., pp. 110-125 (1998); Homolya, L., Holló, Zs., Germann, U. A., Pastan, L, Gottesman, M. M. and Sarkadi, B.: Fluorescent cellular indicators are extruded by the multidrug resistance protein. Journal of Biological Chemistry 268 21493-21496 (1993); Holló, Zs., Homolya, L., Davis, C. W. and Sarkadi, B.: Calcein accumulation as a fluorimetric functional assay of the multidrug trasporter. Biochimica et Biophysica Acta 1191 384-388 199420,21.
The average fluorescence intensities per cell were determined by Becton Dickinson FACScan (Mountain View, Calif.). Dead cells were excluded from the analysis by propidium-iodate staining. The fluorescence signals were plotted on logarithmic scale, the two-level analysis was carried out by BDIS CellQuest and FloWin softwares (SoftFlow Ltd., Pécs, Hungary).
The cells are then treated with the first (“A”) antibody (incubation with or without UIC2, MM8.1 or MC57) for 30 minutes, and the cells are labelled with FITC-MM12.10 (“B”) antibody The curves are flow cytometry histograms from representative measurement each. Continous line: control without “A”; bold line: “A”=UIC2; dotted line: “A”=MM8.15 (a-d) or MC57 (e-f). Binding of the “A” antibodies was verified in two independent experiments, with indirect immunfluorescence.
The ratio of average FITC MM12.10 fluorescence intensities, with and without UIC2 pretreatment give the Rcompetition values (black columns). Cells were pretreated for 20 minutes with reverting agents, and incubated for further 20 minutes with UIC2 antibody, finally the FITC-MM12.10 antibody was used (further 30 minutes incubation). Cells were not washed between the incubation steps. […] UIC2-shift was detected by indirect immunfluorescence; the white columns show the ratio of the average fluorescence intensities detected with and without the reverting treatments (Rshift). On the insert figure the same UIC2-shift data are plotted on magnified scale. The average of 4-6 independent measurements (±SEM) are shown.
ACT tests were carried out on NIH3T3 MDR1 cells, with different antibody combinations. Following UIC2 or MM12.10 (not conjugated with stain) pretreatment the cells are labelled with FITC or 5sFx conjugated MM12.10, UIC2, MRK16 and MM18.15 antibodies. Before adding the antibodies the cells are pretreated with CSA (grey columns) or not (black columns).

P-glycoprotein (Pgp), sequence (P08183 whole entry): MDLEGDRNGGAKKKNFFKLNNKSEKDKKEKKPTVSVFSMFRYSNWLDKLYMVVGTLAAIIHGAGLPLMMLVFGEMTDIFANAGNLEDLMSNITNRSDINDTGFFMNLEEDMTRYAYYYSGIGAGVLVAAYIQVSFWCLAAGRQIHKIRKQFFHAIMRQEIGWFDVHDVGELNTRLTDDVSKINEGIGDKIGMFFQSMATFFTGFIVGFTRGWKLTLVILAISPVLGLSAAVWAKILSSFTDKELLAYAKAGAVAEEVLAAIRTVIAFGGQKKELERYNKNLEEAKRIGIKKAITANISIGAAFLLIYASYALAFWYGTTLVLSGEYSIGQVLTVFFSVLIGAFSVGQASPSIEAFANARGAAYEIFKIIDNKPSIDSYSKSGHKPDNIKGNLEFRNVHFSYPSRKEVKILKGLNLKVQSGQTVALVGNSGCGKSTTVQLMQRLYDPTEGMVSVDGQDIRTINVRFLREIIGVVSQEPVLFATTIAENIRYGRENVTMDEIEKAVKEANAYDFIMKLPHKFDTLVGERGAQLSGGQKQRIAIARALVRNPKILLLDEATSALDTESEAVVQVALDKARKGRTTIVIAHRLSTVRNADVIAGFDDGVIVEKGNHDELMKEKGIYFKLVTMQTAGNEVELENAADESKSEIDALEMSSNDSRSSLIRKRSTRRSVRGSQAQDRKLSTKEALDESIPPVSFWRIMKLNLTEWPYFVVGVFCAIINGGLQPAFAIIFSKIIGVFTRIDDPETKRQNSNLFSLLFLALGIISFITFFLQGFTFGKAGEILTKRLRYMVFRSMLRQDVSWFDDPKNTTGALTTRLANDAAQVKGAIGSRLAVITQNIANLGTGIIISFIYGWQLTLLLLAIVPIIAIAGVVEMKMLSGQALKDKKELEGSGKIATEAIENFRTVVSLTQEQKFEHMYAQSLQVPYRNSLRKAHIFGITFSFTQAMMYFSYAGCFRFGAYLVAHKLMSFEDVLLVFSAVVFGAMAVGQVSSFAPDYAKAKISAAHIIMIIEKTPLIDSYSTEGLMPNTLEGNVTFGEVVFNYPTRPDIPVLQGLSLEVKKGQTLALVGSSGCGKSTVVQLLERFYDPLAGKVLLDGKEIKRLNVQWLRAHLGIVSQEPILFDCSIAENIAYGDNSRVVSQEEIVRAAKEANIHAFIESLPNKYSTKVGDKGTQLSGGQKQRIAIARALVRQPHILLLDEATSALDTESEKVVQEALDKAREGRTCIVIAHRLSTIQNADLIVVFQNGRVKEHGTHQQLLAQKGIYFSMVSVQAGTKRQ

| Molecule | conformation change which prevents binding of MM12.10 after UIC2 (efficient in ACT) | Rcompetition value in ACT after ATP depletion | conformation change which prevents binding of MM12.10 after UIC2 (efficient in ACT) (listed as valinomycin) |
| --- | --- | --- | --- |
| C/C=C/C[C@@H](C)C(=O)[C@H]1C(=O)N[C@@H](C(C)C)C(=O)N(C)CC(=O)N(C)[C@@H](CC(C)C)C(=O)N[C@@H](C(C)C)C(=O)N(C)[C@@H](CC(C)C)C(=O)N[C@@H](C)C(=O)N[C@H](C)C(=O)N(C)[C@@H](CC(C)C)C(=O)N(C)[C@@H](CC(C)C)C(=O)N(C)[C@@H](C(C)C)C(=O)N1C [PSC 833] | accomplishes the conformation change |  |  |
| CC[C@H]1/C=C/C=C/C[C@@H](C)[C@H](O)[C@@](C)(O)C(=O)[C@@H](C)[C@H](O)[C@@H](C)C(=O)[C@@H](C)[C@H](O)[C@@H](C)/C=C/C(=O)O[C@@H]2[C@H](C)[C@H](CC1)O[C@]1(CC[C@H](C)[C@H](C[C@@H](C)O)O1)[C@H]2C [oligomicin] |  | big |  |
| CC(C)[C@@H]1NC(=O)[C@H](C)OC(=O)[C@@H](C(C)C)NC(=O)[C@@H](C(C)C)OC(=O)[C@H](C(C)C)NC(=O)[C@H](C)OC(=O)[C@@H](C(C)C)NC(=O)[C@@H](C(C)C)OC(=O)[C@H](C(C)C)NC(=O)[C@H](C)OC(=O)[C@@H](C(C)C)NC(=O)[C@@H](C(C)C)OC1=O [valinomycine] | accomplishes the conformation change |  | efficient |
| gramicidin | doesn't |  |  |
